{
  "source": "patent US9770509B2",
  "about": "“Self micro-emulsifying drug delivery system with increased bioavailability” (Pharmaceutics International, Inc., priority 2010, dated 2017)",
  "experiment": "Temperature cycling / physical stability of solvents, systems and formulations",
  "type": "physicochemical",
  "description": "Temperature Cycling of Selected Solvents and Solubility Systems was studied. Systems were prepared at ambient temperature, with mixed solvent in the weight ratios reported in brackets. Mitotane, 0.25 grams, was then added to 1 gram of each solvent or solvent mixture. Samples were placed in the refrigerator (5° C.±3° C.) and observations were recorded. The samples were then left at ambient temperature for 24 hours, and observations recorded. The samples were then placed in a 40° C. oven, and final observation was made after another 24 hours. These observations are recorded in the table below.\nBased on these studies, several formulations were prepared (see Tables 10 and 11). Temperature cycling was tested to evaluate the physical stability of the three formulations F-2772-054 (33.3% drug w/w), F-2772-055 (20.0% drug w/w), and F-2772-057 (33.3% drug w/w) as well as formulations F-2772-054 and 057 at 28.5% drug w/w. […] Temperature cycling consisted of three stages for 24 hour periods; refrigeration (5° C.), 40° C. conventional oven, and room temperature. After each 24 hour cycle, solutions were evaluated for clarity.",
  "data": [
    {"smiles": "Clc1ccc(C(c2ccccc2Cl)C(Cl)Cl)cc1", "note": "(centres unmarked) [mitotane, Mitotane]", "values": [
      {"measurement": "Highest mitotane concentration trial found to be the most stable", "value": 28.5, "unit": "% weight/weight"},
      {"measurement": "Highest most stable mitotane concentration expressed as drug loading", "setting": "28.5/(100-28.5)", "value": 40, "unit": "% drug loading"}
    ]}
  ]
}
